# In patent EP0531640B1, “Antibiotic LL-E19020 Gamma” (F. HOFFMANN-LA ROCHE AG, priority 1991, dated 1993):
# Legend:
# Format in all cases: cell-based
# Bacillus cereus DAVIES = experiment: MIC by agar dilution; settings: Mueller-Hinton agar, 5% sheep blood, 18 hours, read-out: MINIMAL INHIBITORY CONCENTRATION
# Experimental: (§1) The in vitro antibacterial activity of LL-E19020 Gamma is determined against a spectrum of gram positive and gram negative bacteria by a standard agar dilution method. Mueller-Hinton agar containing 5% sheep blood and two-fold decreasing concentrations of LL-E19020 Gamma is poured into petri dishes. The agar surfaces are inoculated with 1 to 5X10^4 colony forming units of bacteria by means of the Steers replicating device. The lowest concentration of antibiotic that inhibits growth of a bacterial strain after 18 hours incubation is recorded as the minimal inhibitory concentration for that strain.
# (§2) • 1. Serial two-flow dilutions of drug are prepared in Mueller-Hinton broth in a range of 2560 µg/ml-0.15 µg/ml plus a solvent control. • 2. Two milliliters of drug dilution (10X) are added to sterile screw cap bottles to which 18 ml of Mueller-Hinton agar containing 5.6% defibrinated sheep blood is added. Final drug concentration ranges 256 µg/ml-0.015 µg/ml in agar containing 5% sheep blood. • 3. A few isolated colonies of each test organism are inoculated into 5 ml trypticase soy broth or brain heart infusion broth. The cultures are shaken at 35 °C. for 5 hours. • 4. Each culture is diluted 1:50 (10^-1.7) in Mueller-Hinton broth and applied to agar plates using a Steers replicator. Control plates should be seeded last to ensure that viable organisms are present throughout the procedure. Inoculated agar plates are allowed to stand undisturbed until the inoculum spots are completely absorbed. • 5. The plates are inverted and incubated at 35 °C. for 18 hours with CO2. • 6. The minimum inhibitory concentration (MIC) is taken as the lowest concentration of antimicrobial agent at which complete inhibition of antimicrobial agent at which complete inhibition occurs. A very fine, barely visible haze or a single colony is disregarded.
# [1] = tested on: Enterococcus spp. ARUM 87-41; experiment: MIC by agar dilution; settings: Mueller-Hinton agar, 5% sheep blood, 18 hours, read-out: MINIMAL INHIBITORY CONCENTRATION
# Experimental: as §1, §2
# [2] = tested on: Enterococcus spp. CHBM 88-60; experiment: MIC by agar dilution; settings: Mueller-Hinton agar, 5% sheep blood, 18 hours, read-out: MINIMAL INHIBITORY CONCENTRATION
# Experimental: as §1, §2
# [3] = tested on: Enterococcus spp. CMC 83-120; experiment: MIC by agar dilution; settings: Mueller-Hinton agar, 5% sheep blood, 18 hours, read-out: MINIMAL INHIBITORY CONCENTRATION
# Experimental: as §1, §2
# [4] = tested on: Enterococcus spp. UCI 85-30; experiment: MIC by agar dilution; settings: Mueller-Hinton agar, 5% sheep blood, 18 hours, read-out: MINIMAL INHIBITORY CONCENTRATION
# Experimental: as §1, §2
# [5] = tested on: Enterococcus spp. VGH 84-69; experiment: MIC by agar dilution; settings: Mueller-Hinton agar, 5% sheep blood, 18 hours, read-out: MINIMAL INHIBITORY CONCENTRATION
# Experimental: as §1, §2
# [6] = tested on: Enterococcus spp. WRVA 88-33; experiment: MIC by agar dilution; settings: Mueller-Hinton agar, 5% sheep blood, 18 hours, read-out: MINIMAL INHIBITORY CONCENTRATION
# Experimental: as §1, §2
# [7] = tested on: Escherichia coli ATCC 25922; experiment: MIC by agar dilution; settings: ATCC25922, Mueller-Hinton agar, 5% sheep blood, 18 hours, read-out: MINIMAL INHIBITORY CONCENTRATION
# Experimental: as §1, §2
# [8] = tested on: Escherichia coli ATCC 35218; experiment: MIC by agar dilution; settings: ATCC35218, 18 h, read-out: MINIMAL INHIBITORY CONCENTRATION
# Experimental: as §1, §2
# [9] = tested on: Klebsiella pneumoniae NEMC 87-271; experiment: MIC by agar dilution; settings: NEMC87271, Mueller-Hinton agar, 5% sheep blood, 18 hours, read-out: MINIMAL INHIBITORY CONCENTRATION
# Experimental: as §1, §2
# [10] = tested on: Pseudomonas aeruginosa 12-4-4 (MP); experiment: MIC by agar dilution; settings: Mueller-Hinton agar, 5% sheep blood, 18 hours, read-out: MINIMAL INHIBITORY CONCENTRATION
# Experimental: as §1, §2
# [11] = tested on: Staphylococcus aureus ATCC 25923; experiment: MIC by agar dilution; settings: ATCC25923, Mueller-Hinton agar, 5% sheep blood, 18 hours, read-out: MINIMAL INHIBITORY CONCENTRATION
# Experimental: as §1, §2
# [12] = tested on: Staphylococcus aureus ATCC 29213; experiment: MIC by agar dilution; settings: ATCC29213, Mueller-Hinton agar, 5% sheep blood, 18 hours, read-out: MINIMAL INHIBITORY CONCENTRATION
# Experimental: as §1, §2
# [13] = tested on: Staphylococcus aureus CMC 83-131; experiment: MIC by agar dilution; settings: CMC83131, Mueller-Hinton agar, 5% sheep blood, 18 hours, read-out: MINIMAL INHIBITORY CONCENTRATION
# Experimental: as §1, §2
# [14] = tested on: Staphylococcus aureus IVES 160; experiment: MIC by agar dilution; settings: IVES160, Mueller-Hinton agar, 5% sheep blood, 18 hours, read-out: MINIMAL INHIBITORY CONCENTRATION
# Experimental: as §1, §2
# [15] = tested on: Staphylococcus aureus IVES 396; experiment: MIC by agar dilution; settings: IVES396, Mueller-Hinton agar, 5% sheep blood, 18 hours, read-out: MINIMAL INHIBITORY CONCENTRATION
# Experimental: as §1, §2
# [16] = tested on: Staphylococcus aureus NEMC 87-69; experiment: MIC by agar dilution; settings: NEMC8769, Mueller-Hinton agar, 5% sheep blood, 18 hours, read-out: MINIMAL INHIBITORY CONCENTRATION
# Experimental: as §1, §2
# [17] = tested on: Staphylococcus aureus ROSE (MP); experiment: MIC by agar dilution; settings: Mueller-Hinton agar, 5% sheep blood, 18 hours, read-out: MINIMAL INHIBITORY CONCENTRATION
# Experimental: as §1, §2
# [18] = tested on: Staphylococcus aureus SMITH (MP); experiment: MIC by agar dilution; settings: Mueller-Hinton agar, 5% sheep blood, 18 hours, read-out: MINIMAL INHIBITORY CONCENTRATION
# Experimental: as §1, §2
# [19] = tested on: Staphylococcus aureus VGH 84-47; experiment: MIC by agar dilution; settings: VGH8447, 18 h, read-out: MINIMAL INHIBITORY CONCENTRATION
# Experimental: as §1, §2
# [20] = tested on: Staphylococcus epidermidis IVES 455; experiment: MIC by agar dilution; settings: IVES455, Mueller-Hinton agar, 5% sheep blood, 18 hours, read-out: MINIMAL INHIBITORY CONCENTRATION
# Experimental: as §1, §2
# [21] = tested on: Staphylococcus haemolyticus AVAH 88-1; experiment: MIC by agar dilution; settings: AVAH881, Mueller-Hinton agar, 5% sheep blood, 18 hours, read-out: MINIMAL INHIBITORY CONCENTRATION
# Experimental: as §1, §2
# [22] = tested on: Staphylococcus haemolyticus AVAH 88-3; experiment: MIC by agar dilution; settings: AVAH883, Mueller-Hinton agar, 5% sheep blood, 18 hours, read-out: MINIMAL INHIBITORY CONCENTRATION
# Experimental: as §1, §2
# [23] = tested on: Streptococcus pneumoniae CHBM 88-75; experiment: MIC by agar dilution; settings: CHBM8875, Mueller-Hinton agar, 5% sheep blood, 18 hours, read-out: MINIMAL INHIBITORY CONCENTRATION
# Experimental: as §1, §2
# [24] = tested on: Streptococcus pneumoniae SV-1 (MP); experiment: MIC by agar dilution; settings: Mueller-Hinton agar, 5% sheep blood, 18 hours, read-out: MINIMAL INHIBITORY CONCENTRATION
# Experimental: as §1, §2
# [25] = tested on: Streptococcus pneumoniae TEX 85-2; experiment: MIC by agar dilution; settings: TEX852, Mueller-Hinton agar, 5% sheep blood, 18 hours, read-out: MINIMAL INHIBITORY CONCENTRATION
# Experimental: as §1, §2
# [26] = tested on: Streptococcus pyogenes AMCH 88-84; experiment: MIC by agar dilution; settings: AMCH8884, Mueller-Hinton agar, 5% sheep blood, 18 hours, read-out: MINIMAL INHIBITORY CONCENTRATION
# Experimental: as §1, §2
# [27] = tested on: Streptococcus pyogenes AMCH 88-86; experiment: MIC by agar dilution; settings: AMCH8886, Mueller-Hinton agar, 5% sheep blood, 18 hours, read-out: MINIMAL INHIBITORY CONCENTRATION
# Experimental: as §1, §2
# [28] = tested on: Streptococcus pyogenes C203 (MP); experiment: MIC by agar dilution; settings: Mueller-Hinton agar, 5% sheep blood, 18 hours, read-out: MINIMAL INHIBITORY CONCENTRATION
# Experimental: as §1, §2
# gram negative bacteria = experiment: MIC by agar dilution, summary for gram-negative bacteria; settings: 18 h; text summary: no gram-negative activity
# Experimental: as §1
# as §2, with “Inoculated agar plates are allowed to stand undisturbed until the inoculum spots are completely absorbed. • 5. The plates are inverted and incubated at 35 °C. for 18 hours with CO2. • 6. The minimum inhibitory concentration (MIC) is taken as the lowest concentration of antimicrobial agent at which complete inhibition of antimicrobial agent at which complete inhibition occurs. A very fine, barely visible haze or a single colony is disregarded.” left out
# [29] = tested on: staphylococci and enterococci; experiment: MIC by agar dilution, summary for staphylococci and enterococci; settings: 18 h; text summary: poor to moderate activity vs staphylococci and enterococci
# Experimental: as §1
# as §2, with “Inoculated agar plates are allowed to stand undisturbed until the inoculum spots are completely absorbed. • 5. The plates are inverted and incubated at 35 °C. for 18 hours with CO2. • 6. The minimum inhibitory concentration (MIC) is taken as the lowest concentration of antimicrobial agent at which complete inhibition of antimicrobial agent at which complete inhibition occurs. A very fine, barely visible haze or a single colony is disregarded.” left out
structure (smiles),measurement,setting,value
C/C=C\C=C\C1OC(O)(C(COC2CC(OC)C(OC3CC(OC)C(OC4CC(OC)C(O)C(C)O4)C(C)O3)C(C)O2)C(=O)NC/C=C/C=C(\C)C(OC)C(C)C2CC(O)C(/C=C/C=C/C=C/C(=O)O)O2)C(OC(=O)Cc2ccc(O)cc2)C(O)C1(C)C (stereo not shown) [LL-E19020 Gamma],MIC,Bacillus cereus DAVIES,32 µg/mL
same,MIC,[1],8 µg/mL
same,MIC,[2],16 µg/mL
same,MIC,[3],16 µg/mL
same,MIC,[4],16 µg/mL
same,MIC,[5],16 µg/mL
same,MIC,[6],16 µg/mL
same,MIC,[7],> 128 µg/mL
same,MIC,[8],> 128 µg/mL
same,MIC,[9],> 128 µg/mL
same,MIC,[10],> 128 µg/mL
same,MIC,[11],> 128 µg/mL
same,MIC,[12],128 µg/mL
same,MIC,[13],64 µg/mL
same,MIC,[14],32 µg/mL
same,MIC,[15],64 µg/mL
same,MIC,[16],32 µg/mL
same,MIC,[17],32 µg/mL
same,MIC,[18],128 µg/mL
same,MIC,[19],64 µg/mL
same,MIC,[20],16 µg/mL
same,MIC,[21],64 µg/mL
same,MIC,[22],16 µg/mL
same,MIC,[23],16 µg/mL
same,MIC,[24],0.12 µg/mL
same,MIC,[25],0.5 µg/mL
same,MIC,[26],0.12 µg/mL
same,MIC,[27],0.5 µg/mL
same,MIC,[28],0.12 µg/mL
same,MIC,gram negative bacteria,> 128 µg/mL
same,MIC,[29],8 to 128 µg/mL
